Experiments:
[1] = Inhibition of HCV genotype 1b NS3/4A protease; design: species or system Hepatitis C virus subtype 1b
Hepatitis C virus = assay: Antiviral activity against HCV genotype 1b infected in Rluc cells by 384 well-format assay; format: functional, organism-based, Hepacivirus hominis

Structure (SMILES)	IC50 [1] [µM]	EC50 (Hepatitis C virus) [µM]
COc1ccc2c(O[C@@H]3C[C@H]4C(=O)N[C@]5(C(=O)NS(=O)(=O)C6CC6)C[C@H]5/C=C\CCCCCCS(=O)(=O)N4C3)cc(-c3nc(C(C)C)cs3)nc2c1C	0.013	0.44
COc1ccc2c(O[C@@H]3C[C@H]4C(=O)N[C@]5(C(=O)O)C[C@H]5/C=C\CCCCCS(=O)(=O)N4C3)cc(-c3nc(C(C)C)cs3)nc2c1C	0.747	> 2
C=C[C@@H]1C[C@]1(NC(=O)[C@@H]1C[C@@H](Oc2cc(-c3nc(C(C)C)cs3)nc3c(C)c(OC)ccc23)[C@H]2CCCC(=O)N21)C(=O)NS(=O)(=O)C1CC1	0.047	> 2
COc1ccc2c(O[C@@H]3C[C@H]4C(=O)N[C@]5(C(=O)NS(=O)(=O)C6CC6)C[C@H]5/C=C\CCCCCC(=O)N4C3)cc(-c3nc(C(C)C)cs3)nc2c1C	0.0004	0.004
COc1ccc2c(O[C@@H]3C[C@H]4C(=O)N[C@]5(C(=O)NS(=O)(=O)C6CC6)C[C@H]5/C=C\CCCCCCC(=O)N4C3)cc(-c3nc(C(C)C)cs3)nc2c1C	0.0003	0.0058
COc1ccc2c(O[C@@H]3C[C@H]4C(=O)N[C@]5(C(=O)NS(=O)(=O)C6CC6)C[C@H]5/C=C\CCCCCS(=O)(=O)N4C3)cc(-c3nc(C(C)C)cs3)nc2c1C	0.0029	0.079
C=C[C@@H]1C[C@]1(NC(=O)[C@@H]1C[C@@H](Oc2cc(-c3nc(C(C)C)cs3)nc3c(C)c(OC)ccc23)[C@H]2CCCS(=O)(=O)N21)C(=O)NS(=O)(=O)C1CC1	0.639	> 2
COc1ccc2c(O[C@@H]3C[C@H]4C(=O)N[C@]5(C(=O)NS(=O)(=O)C6CC6)C[C@H]5CCCCCCCS(=O)(=O)N4C3)cc(-c3nc(C(C)C)cs3)nc2c1C	0.0047	0.089
COc1ccc2c(O[C@@H]3C[C@H]4C(=O)N[C@]5(C(=O)NS(=O)(=O)C6CC6)C[C@H]5CCCCCCCCS(=O)(=O)N4C3)cc(-c3nc(C(C)C)cs3)nc2c1C	0.0074	0.257
COc1ccc2c(O[C@@H]3C[C@H]4C(=O)N[C@]5(C(=O)O)C[C@H]5/C=C\CCCCCCS(=O)(=O)N4C3)cc(-c3nc(C(C)C)cs3)nc2c1C	0.712	> 2

Reference: ChEMBL document CHEMBL3112464, “Novel, sulfonamide linked inhibitors of the hepatitis C virus NS3 protease” (Bioorg Med Chem Lett, 2014)
